Data taken from publication PMC10515640, “Structure-Based Optimization of Covalent, Small-Molecule Stabilizers of the 14-3-3σ/ERα Protein–Protein Interaction from Nonselective Fragments” (Journal of the American Chemical Society, 2023).

Experiments:
14-3-3σ/ERα [1] = biological target: T1, 14-3-3σ/ERα (Homo sapiens, UniProt P03372+P31947); assay: Fluorescence anisotropy protein titration, FAM-labeled ERα peptide; assay type: binding; conditions: 10 nM FAM-ERα peptide, versus DMSO reference
T1 construct: The 14-3-3 σ isoform (full-length for mass spectrometry and fluorescence anisotropy assays, ΔC for crystallography); made in house; host or cells: E. coli Rosetta 2(DE3)pLysS, pPROEX HTb vector
Description: To evaluate compound-mediated stabilization of the 14-3-3σ/ERα complex directly, FA protein titrations were performed at a saturating concentration of compound. FA protein titrations allowed the quantification of the cooperative effect by comparing the apparent dissociation constants (appKD) of the binary and ternary complexes. 14-3-3σ was titrated into 10 nM FAM-labeled ERα peptide in the presence of DMSO or 100 μM of the compounds (Table S4). […]
diluted in buffer (10 mM HEPES, pH 7.5, 150 mM NaCl, 0.1% Tween20, 1 mg/mL Bovine Serum Albumin (BSA; Sigma-Aldrich). Final DMSO in the assay was always 1%. […]
Protein titrations were made by titrating 14-3-3σ in a 2-fold dilution series (starting at 300 µM) to a mix of fluorescein-labeled peptide (10 nM) and DMSO or compound (100 µM). Fluorescence anisotropy measurements were performed after overnight incubation at room temperature. […]
Wells containing only FAM-peptide were used to set as G-factor at 35 mP. Data reported are at endpoint. EC50 and apparent Kd values were obtained from fitting the data with a four-parameter logistic model (4PL) in GraphPad Prism 7 for Windows. Data was obtained and averaged based on either three (compound titrations) or two (protein titrations) independent experiments.

14-3-3σ = biological target: T2, 14-3-3σ (Homo sapiens, UniProt P31947); assay: Mass spectrometry dose response, compound binding to 14-3-3σ in the absence of peptide (apo); conditions: 100 nM compound, 100 nM 14-3-3σ
T2 construct: The 14-3-3 σ isoform (full-length for mass spectrometry and fluorescence anisotropy assays, ΔC for crystallography); made in house; host or cells: E. coli Rosetta 2(DE3)pLysS, pPROEX HTb vector
T2 sequence (P31947 1-248): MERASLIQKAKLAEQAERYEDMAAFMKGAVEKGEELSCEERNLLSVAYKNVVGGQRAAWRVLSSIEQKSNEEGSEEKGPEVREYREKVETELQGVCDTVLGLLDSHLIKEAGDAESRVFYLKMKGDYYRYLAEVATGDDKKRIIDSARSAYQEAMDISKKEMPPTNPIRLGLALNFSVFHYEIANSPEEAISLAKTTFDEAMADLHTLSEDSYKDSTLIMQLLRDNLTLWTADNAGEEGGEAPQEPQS
Outline: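 This apo mass spectrometry assay tracked adduct formation between compounds and the native cysteine of 14-3-3σ in the absence of any peptide. Wells held 100 nM protein in 10 mM TRIS pH 8.0 with a 3-fold compound dilution series, final volume 50 μl. Injections of 6 μl were taken at 1h, 8h, 16h and 24h, and dose responses were fitted with a four-parameter variable-slope model in GraphPad Prism.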

14-3-3σ/ERα [2] = biological target: T1, 14-3-3σ/ERα; assay: Mass spectrometry dose response, compound binding to 14-3-3σ in the presence of ERα phosphopeptide; conditions: 100 nM compound, 100 nM 14-3-3σ, ERα-peptide 2 µM
Outline: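 Covalent labeling of Cys38 on 14-3-3σ was tracked by LC-MS on a Waters Acquity UPLC/Xevo G2-XS Q-Tof, with samples desalted on a Protein BEH-C4 column. Full-length wild type 14-3-3σ (100 nM) plus ERα phosphopeptide was mixed with compound in 10 mM TRIS, pH 8.0, at 50 μl per well. Percent bound was measured at several time points.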

14-3-3σ/C-RAF [3] = biological target: T3, 14-3-3σ/C-RAF (Homo sapiens, UniProt P31947); assay: Mass spectrometry dose response, compound binding to 14-3-3σ in the presence of C-RAF phosphopeptide; conditions: 100 nM compound, 100 nM 14-3-3σ, C-RAF peptide 18 µM
T3 construct: The 14-3-3 σ isoform (full-length for mass spectrometry and fluorescence anisotropy assays, ΔC for crystallography); made in house; host or cells: E. coli Rosetta 2(DE3)pLysS, pPROEX HTb vector
T3 sequence (P31947 1-248): T2 sequence (P31947 1-248)
Outline: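 Compound stocks of 50 mM in DMSO were serially diluted 3-fold to give 19-point dose responses topping out at 1 mM, then 1000 nl was transferred into 50 μl wells holding 100 nM full-length wild type 14-3-3σ plus C-RAF phosphopeptide. Mass spectrometry measured percent compound bound to Cys38, with curves fitted in GraphPad Prism using a four-parameter variable-slope model.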

14-3-3σ/ERα [4] = biological target: T1, 14-3-3σ/ERα; assay: Fluorescence anisotropy compound titration, FAM-labeled ERα peptide; assay type: binding; conditions: 10 nM ERα-FAM labeled peptide, 1 µM 14-3-3σ, overnight incubation (24 h); read-out: EC50 value ERα (FA compound titration)
Outline: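 Compounds, serially diluted 2-fold from a top concentration of 500 or 1000 µM, were added to 10 nM FAM-labeled ERα peptide plus 1 µM 14-3-3σ in 10 mM HEPES pH 7.5, 150 mM NaCl, 0.1% Tween20, 1 mg/mL BSA (1% DMSO). Anisotropy was measured after overnight room-temperature incubation, and EC50 values were derived by four-parameter logistic fitting averaged over three independent experiments.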

14-3-3σ/C-RAF [5] = biological target: T3, 14-3-3σ/C-RAF; assay: Fluorescence anisotropy compound titration, FAM-labeled C-RAF peptide; assay type: binding; conditions: 10 nM C-RAF-FAM labeled peptide, 5 µM 14-3-3σ, overnight incubation; read-out: EC50 value C-RAF (FA compound titration)
Outline: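 Peptide-binding stabilization was followed by fluorescence anisotropy. A mix of 5 µM 14-3-3σ and 10 nM FAM-labeled C-RAF peptide received 2-fold serial dilutions of compound starting at 500 or 1000 µM. The buffer was 10 mM HEPES pH 7.5, 150 mM NaCl, 0.1% Tween20 and 1 mg/mL BSA. Anisotropy was read after incubating overnight at room temperature. A four-parameter logistic fit in GraphPad Prism 7 gave EC50 values averaged from three experiments.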

Compound | X Fold stabilization (100 µM compound) of 14-3-3σ/ERα (14-3-3σ/ERα [1]) | Percentage (%) bound of compound to 14-3-3σ, APO 1h (14-3-3σ) | Percentage (%) bound of compound to 14-3-3σ, APO 8h (14-3-3σ) | Percentage (%) bound of compound to 14-3-3σ, APO 16h (14-3-3σ) | Percentage (%) bound of compound to 14-3-3σ, APO 24h (14-3-3σ) | Percentage (%) bound of compound to 14-3-3σ, ERα 1h (14-3-3σ/ERα [2]) | Percentage (%) bound of compound to 14-3-3σ, ERα 8h (14-3-3σ/ERα [2]) | Percentage (%) bound of compound to 14-3-3σ, ERα 16h (14-3-3σ/ERα [2]) | Percentage (%) bound of compound to 14-3-3σ, ERα 24h (14-3-3σ/ERα [2]) | Percentage (%) bound of compound to 14-3-3σ, CRAF 1h (14-3-3σ/C-RAF [3]) | Percentage (%) bound of compound to 14-3-3σ, CRAF 8h (14-3-3σ/C-RAF [3]) | Percentage (%) bound of compound to 14-3-3σ, CRAF 24h (14-3-3σ/C-RAF [3]; 24h) | Percentage (%) bound of compound to 14-3-3σ, CRAF 24h (14-3-3σ/C-RAF [3]; head prints 24h) | EC50 (14-3-3σ/ERα [4]) | EC50 (14-3-3σ/C-RAF [5])
C=CC(C)(C)OCC1OC(OC2C3=C(C(C)COC(C)=O)CC(O)C3(C)C=C3C(COC)CCC3C(C)C2O)C(O)C(OC(C)=O)C1O (stereo not shown) [FC-A, Fusicoccin-A, reference compound] | 166 fold | – | – | – | – | – | – | – | – | – | – | – | – | – | –
NC1CCC(Oc2ccc(Cl)cc2)(C(=O)N2CCC(CNC(=O)CCl)CC2)CC1 (stereo not shown) [compound 135] | – | 0.8% | 0.9% | 1.8% | 2.4% | 11.3% | 22.2% | 42.2% | 64.2% | 0.5% | 1.8% | 3.4% | 2.6% | 37 ± 5 µM | > 150 µM
O=C(CCl)N1CC2(CCN(C(=O)C3(Nc4ccc(Cl)cc4)CCOCC3)CC2)C1 [compound 160] | – | 0% | 0% | 1.0% | 5.8% | 6.9% | 8.6% | 48.4% | 76.6% | 0.4% | 1.9% | 8.4% | 3.8% | 16 ± 1 µM | > 150 µM
O=C(CCl)N1CCC2(CC1)CN(C(=O)C1(Nc3ccc(Cl)cc3)CCOCC1)C2 [compound 161] | – | 0% | 0% | 0.5% | 1.0% | 4.7% | 7.8% | 14.9% | 39.8% | 0% | 0.6% | 2.1% | 1.0% | 22 ± 1 µM | > 150 µM
O=C(CCl)NCC1CC2(CCN(C(=O)C3(Nc4ccc(Cl)cc4)CCOCC3)CC2)C1 [compound 174] | – | 1.0% | 1.0% | 1.5% | 3.0% | 5.0% | 5.0% | 8.4% | 41.4% | 0.6% | 0.7% | 2.1% | 1.6% | 97 ± 9 µM | > 150 µM
O=C(CCl)N1CCC2(CC1)CC(CNC(=O)C1(Nc3ccc(Cl)cc3)CCOCC1)C2 [compound 175] | – | 1.9% | 5.4% | 10.6% | 16.7% | 21.7% | 39.4% | 64.1% | 87.3% | 2.4% | 6.0% | 17.4% | 9.6% | 15 ± 2 µM | > 150 µM
CC1(C)CC(Nc2ccc(Cl)cc2)(C(=O)N2CCC(CNC(=O)CCl)CC2)CC(C)(C)O1 [compound 179] | – | 0% | 0% | 0.3% | 0.4% | 1.5% | 3.0% | 6.4% | 11.8% | 0% | 0% | 1.0% | 0% | 23 ± 2 µM | > 150 µM
